From article PMC5485575, “Arginine kinase from Haemonchus contortus decreased the proliferation and increased the apoptosis of goat PBMCs in vitro” (Parasites & Vectors, 2017)

Molecular target: T1, rHc-AK (Haemonchus contortus, UniProt K0DG62)
T1 construct: E. coli BL21(DE3), Ni-NTA
Assay: fluorimetric ADP formation assay (Universal Fluorimetric Kinase Assay kit)
Type: biochemical
Conditions: room temperature, 30 min; 0-10 ug enzyme; substrates of the kinase reaction solution not named

T1 sequence (K0DG62 entry or part of it): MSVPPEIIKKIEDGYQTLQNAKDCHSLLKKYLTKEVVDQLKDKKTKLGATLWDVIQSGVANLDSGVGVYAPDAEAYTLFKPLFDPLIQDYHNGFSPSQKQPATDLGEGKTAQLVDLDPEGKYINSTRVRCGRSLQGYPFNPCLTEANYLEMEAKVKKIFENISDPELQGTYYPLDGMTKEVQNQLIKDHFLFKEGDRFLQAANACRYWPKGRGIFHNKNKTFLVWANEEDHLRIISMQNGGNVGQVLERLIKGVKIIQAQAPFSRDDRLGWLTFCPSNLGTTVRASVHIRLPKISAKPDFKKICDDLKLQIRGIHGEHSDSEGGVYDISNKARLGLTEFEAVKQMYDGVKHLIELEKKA

Nc1ncnc2c1ncn2[C@@H]1O[C@H](COP(=O)(O)OP(=O)(O)O)[C@@H](O)[C@H]1O [ADP]
fluorimetric ADP formation assay (Universal Fluorimetric Kinase Assay kit): results showed a remarkable augmentation in ADP generation with increased period
